What all share (type): functional
The subject of one test is B16-F10. Put plainly: Cytotoxicity against Homo sapiens (human) B16F10 cells after 72 hr by MTT assay. Conditions: Mus musculus, B16-F10, 72 h; read-out: ED50 (the source's name). A general note: Formazan colour is commonly taken as a measure of viable cells.
For a further test, the system named is L132. Kind of test: Cytotoxicity against Homo sapiens (human) L-132 cells after 72 hr by MTT assay. Particulars: L132, 72 h, read-out: ED50 (the source's name).
The next test concerns MCF7. Kind of test: Cytotoxicity against Homo sapiens (human) MCF7 cells after 72 hr by MTT assay. Particulars: MCF7, 72 h, read-out: ED50 (the source's name).
In a further test the test system is HuTu80. Put plainly: Cytotoxicity against Homo sapiens (human) HuTu 80 cells after 72 hr by MTT assay. Particulars: HuTu80, 72 h, read-out: ED50 (the source's name).
Another test has as its system KB. Kind of test: Cytotoxicity against Homo sapiens (human) KB cells after 72 hr by MTT assay. Particulars: read-out: ED50 (the source's name).
Another test deals with MIA PaCa-2. Put plainly: Cytotoxicity against Homo sapiens (human) MIAPaCa2 cells after 72 hr by MTT assay. Particulars: MIA PaCa-2, 72 h, read-out: ED50 (the source's name).
Another test relates to MOLT-4. Put plainly: Cytotoxicity against Homo sapiens (human) MOLT4 cells after 72 hr by MTT assay. Conditions: MOLT-4, 72 h, read-out: ED50 (the source's name).

Values after ≈ are worked out from the molar mass of the structure shown.

For the molecule `O=C1/C(=C\c2c(Cl)cccc2Cl)c2ccccc2N1c1c(Cl)cccc1Cl`, the EC50 is more than 100 µg/mL in the test on B16-F10; more than 100 µg/mL in the test on L132; more than 100 µg/mL in the test on MCF7; 100 µg/mL (≈ 230 µM) in the test on HuTu80; 50 µg/mL (≈ 115 µM) in the test with KB; more than 100 µg/mL in the test on MIA PaCa-2.

On to `COc1ccc(/C=C2\C(=O)N(c3c(Cl)cccc3Cl)c3ccccc32)cc1OC`, for which the EC50 is more than 100 µg/mL with B16-F10; more than 100 µg/mL in the test on L132; 10 µg/mL (≈ 23.5 µM) with MCF7; less than 1 µg/mL in the test with HuTu80; 10 µg/mL (≈ 23.5 µM) in the test with KB; 5 µg/mL (≈ 11.7 µM) in the test on MIA PaCa-2.

`O=C1/C(=C\c2ccc(Cl)cc2)c2ccccc2N1c1c(Cl)cccc1Cl`: the EC50 with B16-F10 was more than 100 µg/mL; in the test with L132 it was 9 µg/mL (≈ 22.5 µM); in the test on MCF7, 5 µg/mL (≈ 12.5 µM); in the test on HuTu80, 6 µg/mL (≈ 15 µM); with KB it was 2 µg/mL (≈ 4.99 µM); in the test with MIA PaCa-2 it was 5 µg/mL (≈ 12.5 µM).

On to `Cc1ccc2nc(Cl)c(/C=C3\C(=O)N(c4c(Cl)cccc4Cl)c4ccccc43)cc2c1C`, for which the EC50 in the test with B16-F10 was more than 100 µg/mL; in the test with L132, 98 µg/mL (≈ 204 µM); in the test with MCF7 it was more than 100 µg/mL; in the test with HuTu80, less than 1 µg/mL; in the test on KB it was 10 µg/mL (≈ 20.8 µM).

With `O=C1/C(=C\c2ccco2)c2ccccc2N1c1c(Cl)cccc1Cl`, the EC50 in the test with B16-F10 was more than 100 µg/mL; in the test with L132, more than 100 µg/mL; in the test on MCF7 it was more than 100 µg/mL; with HuTu80, 18 µg/mL (≈ 50.5 µM); in the test on KB, 5 µg/mL (≈ 14 µM); in the test on MIA PaCa-2, 10 µg/mL (≈ 28.1 µM).

As for `Cc1ccc2nc(Cl)c(/C=C3\C(=O)N(c4c(Cl)cccc4Cl)c4ccccc43)cc2c1`, the figures for the EC50 in the test with MCF7 and in the test with KB were more than 100 µg/mL and 100 µg/mL (≈ 215 µM), respectively.

Take `O=C1/C(=C\c2ccccc2Cl)c2ccccc2N1c1c(Cl)cccc1Cl`: the EC50 in the test with B16-F10 is 39 µg/mL (≈ 97.3 µM); in the test on L132, more than 100 µg/mL; in the test on MCF7, 9 µg/mL (≈ 22.5 µM); in the test with HuTu80, more than 100 µg/mL; in the test on MOLT-4, 7 µg/mL (≈ 17.5 µM); in the test on KB, 5 µg/mL (≈ 12.5 µM). For the same molecule, in the test with MIA PaCa-2, the EC50 is more than 100 µg/mL.

As to `CN(C)c1ccc(/C=C2\C(=O)N(c3c(Cl)cccc3Cl)c3ccccc32)cc1`, the EC50 is more than 100 µg/mL with B16-F10; more than 100 µg/mL in the test on L132; more than 100 µg/mL in the test with MCF7; less than 1 µg/mL in the test with HuTu80; 15 µg/mL (≈ 36.6 µM) in the test with KB; more than 100 µg/mL in the test on MIA PaCa-2.

`O=C1/C(=C\c2ccc(F)cc2)c2ccccc2N1c1c(Cl)cccc1Cl`: the EC50 is 38 µg/mL (≈ 98.9 µM) in the test with B16-F10; 13 µg/mL (≈ 33.8 µM) in the test on L132; 9 µg/mL (≈ 23.4 µM) in the test with MCF7; 8 µg/mL (≈ 20.8 µM) in the test on HuTu80; 5 µg/mL (≈ 13 µM) in the test with KB; 5 µg/mL (≈ 13 µM) with MIA PaCa-2.

For `O=C1/C(=C\c2cccc(Cl)c2)c2ccccc2N1c1c(Cl)cccc1Cl`, the EC50 in the test on B16-F10 was determined as 8 µg/mL (≈ 20 µM); in the test on L132 it was 16 µg/mL (≈ 39.9 µM); in the test on HuTu80, 7 µg/mL (≈ 17.5 µM); in the test with MOLT-4, 6 µg/mL (≈ 15 µM); in the test with KB, 2 µg/mL (≈ 4.99 µM); in the test with MIA PaCa-2, 5 µg/mL (≈ 12.5 µM).

On to `O=C1/C(=C\c2cccc3ccccc23)c2ccccc2N1c1c(Cl)cccc1Cl`, for which the EC50 was more than 100 µg/mL in the test on B16-F10; more than 100 µg/mL in the test on L132; more than 100 µg/mL with MCF7; 10 µg/mL (≈ 24 µM) in the test on HuTu80; more than 100 µg/mL in the test with KB; more than 100 µg/mL with MIA PaCa-2.

`O=C1/C(=C\c2ccccc2)c2ccccc2N1c1c(Cl)cccc1Cl`: the EC50 is 9 µg/mL (≈ 24.6 µM) with B16-F10; more than 100 µg/mL in the test on L132; 10 µg/mL (≈ 27.3 µM) in the test on MCF7; 8 µg/mL (≈ 21.8 µM) with HuTu80; 7 µg/mL (≈ 19.1 µM) with MOLT-4; 10 µg/mL (≈ 27.3 µM) in the test on KB. Moreover, the EC50 in the test with MIA PaCa-2 is more than 100 µg/mL.

Regarding `O=C1/C(=C\c2cc3ccccc3nc2Cl)c2ccccc2N1c1c(Cl)cccc1Cl`, the EC50 with MCF7 was more than 100 µg/mL; in the test with KB it was 10 µg/mL (≈ 22.1 µM); with MIA PaCa-2, 5 µg/mL (≈ 11.1 µM).

With `O=C1/C(=C\c2cccc(Br)c2)c2ccccc2N1c1c(Cl)cccc1Cl`, the EC50 came to 8 µg/mL (≈ 18 µM) in the test with B16-F10; 19 µg/mL (≈ 42.7 µM) in the test on L132; 5 µg/mL (≈ 11.2 µM) with MCF7; 7 µg/mL (≈ 15.7 µM) in the test on HuTu80; 7 µg/mL (≈ 15.7 µM) in the test on MOLT-4; 2 µg/mL (≈ 4.49 µM) in the test on KB. The EC50 in the test with MIA PaCa-2 worked out at 5 µg/mL (≈ 11.2 µM).

Regarding `O=C1Cc2ccccc2N1c1c(Cl)cccc1Cl`, the EC50 with B16-F10 was more than 100 µg/mL; in the test with L132, more than 100 µg/mL; with MCF7, more than 100 µg/mL; with HuTu80, more than 100 µg/mL; in the test on KB it was 100 µg/mL (≈ 360 µM); with MIA PaCa-2, more than 100 µg/mL.

As to `O=C1/C(=C\c2cccc(Oc3ccccc3)c2)c2ccccc2N1c1c(Cl)cccc1Cl`, the EC50 in the test on B16-F10 was more than 100 µg/mL; in the test on L132, 24 µg/mL (≈ 52.4 µM); in the test on MCF7, 100 µg/mL (≈ 218 µM); in the test on HuTu80, 10 µg/mL (≈ 21.8 µM); in the test on MOLT-4, 6 µg/mL (≈ 13.1 µM); in the test on KB, 5 µg/mL (≈ 10.9 µM). The EC50 in the test on MIA PaCa-2 is more than 100 µg/mL.

For `COc1ccc(/C=C2\C(=O)N(c3c(Cl)cccc3Cl)c3ccccc32)cc1`, the EC50 in the test with B16-F10, with L132, in the test with MCF7, in the test on HuTu80, in the test with KB and in the test on MIA PaCa-2 was more than 100 µg/mL in each case.

Take `O=C1/C(=C\c2ccc(O)cc2)c2ccccc2N1c1c(Cl)cccc1Cl`: the EC50 in the test with B16-F10 was 33 µg/mL (≈ 86.3 µM); in the test on L132, 30 µg/mL (≈ 78.5 µM); with MCF7 it was 20 µg/mL (≈ 52.3 µM); in the test with HuTu80 it was 25 µg/mL (≈ 65.4 µM); in the test with KB it was 2 µg/mL (≈ 5.23 µM); in the test on MIA PaCa-2, 2 µg/mL (≈ 5.23 µM).

With `O=C1/C(=C\c2ccccc2[N+](=O)[O-])c2ccccc2N1c1c(Cl)cccc1Cl`, the EC50 in the test with B16-F10 is more than 100 µg/mL; in the test with L132 it was 10 µg/mL (≈ 24.3 µM); in the test with HuTu80 it was 10 µg/mL (≈ 24.3 µM); in the test on MOLT-4, 6 µg/mL (≈ 14.6 µM); with KB, 1 µg/mL (≈ 2.43 µM); with MIA PaCa-2, 5 µg/mL (≈ 12.2 µM).

The values are drawn from ChEMBL document CHEMBL3044932, “In vitro cytotoxicity evaluation of diversely substituted N-aryl-2-oxindoles” (2013).
